From paper PMC5054527, “Mechanism of high affinity inhibition of the human urate transporter URAT1” (Scientific Reports, 2016)
Positions count from the first letter of the chain named. Read-outs that look alike come from different tables or passages of the source.

Legend:
Assay in all cases: URAT1 uric acid transport activity assay
Assay type in all cases: cell-based
[1] = target: T1, rat URAT1 (rURAT1 WT) (Rattus norvegicus, UniProt Q3ZAV1)
T1 sequence (Q3ZAV1 1-553): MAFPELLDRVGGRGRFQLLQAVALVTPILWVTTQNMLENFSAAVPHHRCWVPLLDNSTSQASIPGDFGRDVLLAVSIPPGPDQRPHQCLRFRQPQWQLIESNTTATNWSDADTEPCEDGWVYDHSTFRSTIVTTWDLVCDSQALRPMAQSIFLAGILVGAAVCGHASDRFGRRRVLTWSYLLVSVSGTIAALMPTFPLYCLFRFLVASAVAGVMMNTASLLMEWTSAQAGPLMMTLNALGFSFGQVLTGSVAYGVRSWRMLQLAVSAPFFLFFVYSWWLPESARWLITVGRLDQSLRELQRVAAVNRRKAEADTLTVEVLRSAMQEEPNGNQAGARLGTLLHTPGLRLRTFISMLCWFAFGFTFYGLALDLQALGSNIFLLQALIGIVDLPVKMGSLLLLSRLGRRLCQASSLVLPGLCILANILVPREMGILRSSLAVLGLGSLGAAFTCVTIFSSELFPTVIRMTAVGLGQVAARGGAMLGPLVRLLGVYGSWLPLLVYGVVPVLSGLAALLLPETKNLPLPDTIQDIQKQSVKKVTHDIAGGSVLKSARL

[2] = target: T2, r-L18V rURAT1 point mutant (Rattus norvegicus, UniProt Q3ZAV1, L18V)
T2 sequence (Q3ZAV1 1-553 L18V): T1 sequence (Q3ZAV1 1-553) with L18V
Procedure, shortened: (§1)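 Cells expressing site-directed rat URAT1 mutants were exposed to inhibitor dilutions for 5 minutes before radiolabelled uric acid (100 μM) was added for 10 minutes. Potency was derived by nonlinear regression of log inhibitor versus response.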

[3] = target: T3, r-N35S/Y365F rURAT1 double point mutant (Rattus norvegicus, UniProt Q3ZAV1, N35S/Y365F)
T3 construct: expressed in transfected cells; host or cells: HEK-293T
T3 sequence (Q3ZAV1 1-553 N35S/Y365F): T1 sequence (Q3ZAV1 1-553) with N35S, Y365F
Procedure, shortened: as §1

[4] = rURAT1 WT, MES pH 5.5, 100 μM 14C-uric acid, read-out: IC50 (uric acid transport)
[5] = r-N35S/Y365F, MES pH 5.5, 100 μM 14C-uric acid, read-out: IC50 (uric acid transport)

CCc1oc2ccccc2c1C(=O)c1cc(Br)c(O)c(Br)c1 [benzbromarone]
IC50 [1]: 26 µM
IC50 [2]: 24 ± 3.1 µM
IC50 [3]: 2.2 ± 0.29 µM

O=C(O)CSc1nnc(Br)n1-c1ccc(C2CC2)c2ccccc12 [lesinurad, 2-((5-bromo-4-(4-cyclopropylnaphthalen-1-yl)-4H-1,2,4-triazol-3-yl)thio)acetic acid]
IC50 [1, 4]: 81 µM
IC50 ([2]; r-L18V, MES pH 5.5, 100 μM 14C-uric acid, read-out: IC50 (uric acid transport)): 78 ± 6.6 µM
IC50 [3, 5]: 1.6 ± 0.03 µM

O=C1C(CC[S+]([O-])c2ccccc2)C(=O)N(c2ccccc2)N1c1ccccc1 (stereo not drawn) [sulfinpyrazone]
IC50 ([1]; rURAT1 WT, HEPES pH 7.3, 100 μM 14C-uric acid, read-out: IC50 (uric acid transport)): 680 µM
IC50 ([2]; r-L18V, HEPES pH 7.3, 100 μM 14C-uric acid, read-out: IC50 (uric acid transport)): 971 ± 89 µM
IC50 ([3]; r-N35S/Y365F, HEPES pH 7.3, 100 μM 14C-uric acid, read-out: IC50 (uric acid transport)): 142 ± 15 µM

O=c1[nH]c(=O)c2[nH]c(=O)[nH]c2[nH]1 [uric acid]
IC50 [1, 4]: 2630 µM
fold increased affinity of r-N35S/Y365F compared to rURAT1 ([3]; from IC50 values): 5.4 fold
IC50 [3, 5]: 484 µM
